Several values for one entry are separate records, joined by “and”; a condition that tells them apart may be missing. Equal entries are not always repeated.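 Compound exposure: 48 hours, 5 concentrations, 96-well plates. Here, GI50 denotes the concentration required for 50% inhibition of growth. TGI denotes the concentration required for complete inhibition of growth.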
How the values were obtained:
Assay in all cases: inhibition of tumour cell growth, NCI panel, 48 h
TK-10 renal = system: TK-10 renal
786-0 renal = system: 786-0 renal
EKVX NSCLC = system: EKVX NSCLC
HCT-15 colon = system: HCT-15 colon
RXF 393 renal = system: RXF 393 renal
OVCAR-4 ovarian = system: OVCAR-4 ovarian
HCT-116 colon = system: HCT-116 colon
LOX IMVI melanoma = system: LOX IMVI melanoma
SNB-19 CNS = system: SNB-19 CNS
MDA-MB-231 breast = system: MDA-MB-231 breast
SR leukemia = system: SR leukemia
MOLT-4 leukemia = system: MOLT-4 leukemia
NCI-H226 lung = system: NCI-H226 lung
CCRF-CEM leukemia = system: CCRF-CEM leukemia
ACHN renal = system: ACHN renal
CAKI-1 renal = system: CAKI-1 renal

Row | Compound | TGI (TK-10 renal) [µM] | TGI (786-0 renal) [µM] | TGI (EKVX NSCLC) [µM] | TGI (HCT-15 colon) [µM] | TGI (RXF 393 renal) [µM] | TGI (OVCAR-4 ovarian) [µM] | TGI (HCT-116 colon) [µM] | TGI (LOX IMVI melanoma) [µM] | TGI (SNB-19 CNS) [µM] | TGI (MDA-MB-231 breast) [µM] | TGI (SR leukemia) [µM] | TGI (MOLT-4 leukemia) [µM] | TGI (NCI-H226 lung) [µM] | TGI (CCRF-CEM leukemia) [µM] | TGI (ACHN renal) [µM] | TGI (CAKI-1 renal) [µM] | GI50 (RXF 393 renal) | GI50 (SNB-19 CNS) | GI50 (MDA-MB-231 breast)
1 | COC(=O)/C(C#N)=C(\N)c1c(C)c2ccccc2oc1=N | > 100 | > 100 | > 100 | > 100 | > 100 | > 100 | > 100 | > 100 | > 100 | > 100 | > 100 | > 100 |  |  |  |  |  |  | 
2 | C=C1Cc2cc(OC)c(OC)c(OC)c2-c2ccc(SC)c(=O)cc21 | 6.83 | 1.8 | 18.8 | 1.17 | 10.4 | 18.9 |  | 0.343 | 5.3 |  | > 100 | 25.2 | 0.188 | 6.85 | 6.2 | 6.01 |  |  | 
3 | O=C(C/C=C/c1ccccc1)c1ccccc1 | 65.6 | 48.8 | > 100 | 37 | 34 |  | 33.1 | 30.3 |  |  | 49.9 | 61.6 | 66.6 | 64.8 | 35.8 | 31.7 |  |  | 
4 | O=[N+]([O-])c1cccc(N=Nc2c(O)ccc3ccccc23)c1 | > 100 | > 100 | > 100 | > 100 | > 100 | > 100 | > 100 | > 100 | 75.5 | > 100 |  | > 100 |  | 56.7 |  | > 100 |  |  | 
5 | Clc1c2ccccc2nc2c1[nH]c1ccccc12 | > 100 | > 100 | > 100 | > 100 |  | > 100 | > 100 | > 100 | > 100 | 46.7 | 43.6 | 9.61 |  | > 100 | > 100 | 65.2 |  |  | 
6 | CCOC(=O)c1cc(C2CCN(Cc3ccccc3)C2=S)c(C(=O)C=[N+]=[N-])[nH]1 (stereo unspecified) | > 100 | 85.4 | 89.6 | 53.8 | 75.5 | > 100 | > 100 |  | > 100 | > 100 |  | > 100 |  | > 100 | > 100 | > 100 |  |  | 
7 | Cc1cc2nc(N3C(=O)/C(=C/c4ccc(N(C)C)cc4)N=C3c3ccccc3)sc2cc1C | > 100 | 49.9 | > 100 | > 100 | 57.9 | > 100 | 43 | > 100 | > 100 | 96 | 41.3 | 49.8 |  | 34 | 62.4 | > 100 |  |  | 
8 | S=C(N1CCN(c2ccccc2)CC1)N1CCN(c2ccccc2)CC1 | > 100 | > 100 | > 100 | > 100 | > 100 | > 100 | > 100 |  | > 100 | > 100 |  | > 100 | > 100 | 68.7 | > 100 | > 100 |  |  | 
9 | COC1=CC(=O)C2=C(C[C@@]3(C)C(=C2)C(CO)=CC[C@H]3O)C1=O | > 100 | 38.1 | 38.8 | 88.5 | 30.9 | 31.8 | 40.8 | 38.9 | > 100 | 13.2 |  | 2.49 | 29.2 | 38.4 | 33.1 | > 100 |  |  | 
10 | N#Cc1c(O)c2ccccc2[nH]c1=O | > 100 | > 100 | > 100 | > 100 | > 100 | > 100 | > 100 | > 100 | > 100 | > 100 |  | > 100 | > 100 | > 100 | > 100 | > 100 |  |  | 
11 | COc1c2c(cc3c1C(=O)Cc1ccc4c(c1CN(C)CC3)OCO4)OCO2 | > 100 | > 100 | > 100 | > 100 | > 100 | > 100 | > 100 | > 100 | > 100 |  | > 100 | > 100 | > 100 | > 100 | > 100 | > 100 |  |  | 
12 | CC[C@@]1(CCC(=O)NCCc2c[nH]c3ccccc23)CCC(=O)N2CCc3c([nH]c4ccccc34)[C@H]21 | > 100 | > 100 | > 100 | > 100 | 33.3 | > 100 | > 100 | 96.2 | > 100 | > 100 |  | 34.4 | 77.8 | > 100 | > 100 | > 100 |  |  | 
13 | CCCCOC(=O)c1cc(C(=CCC[C@H]2CC[C@@]3(C)[C@@H](CC[C@@H]4[C@@H]3CC[C@]3(C)[C@@H](C(C)CCCC(C)C)CC[C@@H]43)C2)c2cc(Cl)c(O)c(C(=O)OCCCC)c2)cc(Cl)c1O (stereo partly specified) |  | > 50 | > 50 | > 50 |  | > 50 | > 50 | > 50 | > 50 | > 50 |  | > 5 | > 50 | > 50 |  | > 50 |  |  | 
14 | Cn1c(N=P(c2ccccc2)(c2ccccc2)c2ccccc2)c([N+](=O)[O-])c(=O)n(C)c1=O | > 100 | > 100 | > 100 | > 100 | > 100 | > 100 | > 100 | > 100 | > 100 | > 100 |  | 66.8 | > 100 | 76.6 | > 100 | > 100 |  |  | 
15 | COc1cccc(NC(=O)C(=O)C2C=CCS2(=O)=O)c1 (stereo unspecified) | > 100 | > 100 | > 100 | > 100 | > 100 | > 100 | > 100 | > 100 | > 100 |  | > 100 | > 100 | > 100 | > 100 | > 100 | > 100 |  |  | 
16 | O=C1NC(=S)NC(=O)C1=C/C=C/c1ccc([N+](=O)[O-])cc1 | 22.5 | 34.5 | 36.7 | 31.7 | 26.8 | 36.1 | 37.2 | 22.6 | 34 | 35.5 |  | 16.6 | 44.3 |  | 39 | 30.8 |  |  | 
17 | CCCNC(=O)N(C)C(=O)N1N=C(c2ccccc2)C1c1ccccc1 (stereo unspecified) | > 100 | > 100 | > 100 | > 100 | > 100 | > 100 | > 100 | > 100 | > 100 | > 100 |  | > 100 | > 100 | 75.8 | > 100 | > 100 |  |  | 
18 | COC(=O)C1=C(CCC[C@H](C)O[Si](C)(C)C(C)(C)C)NC(=O)N2[C@@H](CCO)CC[C@H]12 | 35 | 29.1 | 26.1 | 28.9 | 27.5 | 38.2 | 20 | 32.7 | 29 | 31.9 |  | > 100 | 32.4 |  | 30.3 | 37.9 |  |  | 
19 | COc1cc2c[n+](C)c3c4cc(OC)c(OC)cc4ccc3c2cc1OC | > 100 | > 100 | > 100 | > 100 | > 100 | > 100 | > 100 | > 100 | > 100 | > 100 |  | > 100 | > 100 | > 100 | > 100 | > 100 | > 100 µM and 28.5 µM | 80 µM and 13.5 µM | > 100 µM and 18.6 µM
20 | COc1ccc(/C(=N\Nc2ccccn2)c2ccccn2)cc1 |  | 24.5 | 13.6 | 12.5 | 36.6 | 42.9 | 17.4 |  | > 63.9 | > 74.9 | > 33.7 | > 58.3 |  | > 100 | 2.81 | 22.6 |  |  | 
21 | CC[C@H](C)[C@H](NC(=O)[C@@]1(O)[C@H](O)[C@]2(CC)C=CCN3CC[C@@]4(c5cc(Br)c(OC)cc5N(C)[C@@H]14)[C@@H]32)C(=O)OC | > 100 | > 100 | > 100 | > 100 | > 100 | 50 | > 100 | 35.5 | > 100 | 46.5 | > 100 | > 100 |  | 67.3 | > 100 | > 100 |  |  | 
22 | CNC(=O)NS(=O)(=O)c1ccc(C)cc1 | > 100 | > 100 |  | > 100 | > 100 | > 100 | > 100 | > 100 | > 100 | > 100 |  | > 100 |  | > 100 | > 100 |  |  |  | 
23 | C/C(Cc1ccc2c(c1)OCO2)=N\NC(=O)C(C)Sc1nnc(SC(C)C(=O)N/N=C(\C)Cc2ccc3c(c2)OCO3)s1 (stereo unspecified) | > 100 | > 100 | > 100 | > 100 | > 100 | > 100 | > 100 | > 100 | > 100 | > 100 |  | > 100 | > 100 | > 100 | > 100 | > 100 |  |  | 

From PubChem BioAssay (NCI)
